From patent publication US4009273A, “Substituted 10,11-dihydro-5,10-imino-[5H] dibenzo (a,d)-cycloheptene” (priority 1972, dated 1977)
Where “and” joins values, the source holds several entries; their conditions need not be identical. Equal entries are not always repeated.

Legend:
[1] = system: DOPA; test: Potentialization of DOPA; type: in vivo, mice (male); details: 1 h before 50 mg/kg DOPA
Procedure: In this test, DOPA [racemic β-(3,4-dihydroxyphenyl)-alanine] was administered to mice pretreated with 1-isonicotinoyl-2-isopropyl-hydrazine18 hours before the test which product caused the following symptoms: hypertonicity, agitation, crying, aggressiveness, salivation and exophthalmia. The administration of an antidepressant one hour before the DOPA injection potentializes the intensity of the effects.
Male mice weighing between 18 to 22 g received intraperitoneally 50 mg/kg of 1-isonicotinoyl-2-isopropyl-hydrazine and 18 hours later the test product intraperitoneally in aqueous solution in increasing doses and 1 hour later received an intraperitoneal injection of 50 mg/kg of DOPA. The different effects were evaluated 15 and 30 minutes after the DOPA injection and each symptom was evaluated for each animal on a scale from 0 to 3 and the evaluations for each dose was totaled. The totals are reported in Table III as a percent of the total of control animals.

[2] = system: pentamethylenetetrazol convulsions; test: Anticonvulsant effect (pentamethylenetetrazol perfusion); type: in vivo, mice (female); details: 1 h before perfusion
Procedure: The anticonvulsant activity of the compounds was determined on groups of 10 female mice with intraperitoneal administration of the test compounds in acid solution at different doses and the control group received only the solvent. One hour after the injection, the mice were perfused with a solution of pentamethylenetetrazol in physiological serum at a concentration of 3 mg/ml. The perfusion was intraveinous at a rate of 1 ml per minute and in the course of the perfusion, the progress of introxication was characterized by the following 3 criteria:
a. Threshold of convulsant effect (myoclonia of the ears)
b. Crisis of clonic convulsions
c. Tonic convulsion with apnea and generally followed by death.

[3] = system: amphetamine deaths; test: Amphetamine toxicity in mice; type: in vivo, mice (female); details: for ratio of number of dead animals to number of starting animals: mortality at 4 h
Procedure: The test was effected on group of 10 female mice weighing between 18 and 22 g kept at 27° C for the duration of the test. The test products were intraperitoneally administered in different doses in a volume of 0.01 ml /g of mouse. One hour later, the mice received an injection of 15 mg/kg of a solution of 1.5 mg of amphetamine per ml of physiological serum. The mortality 4 hours after the amphetamine injection was determined and the results were expressed as a ratio of number of dead animals to number of starting animals.

[4] = Acute toxicity; details: mouse, in vivo, ip, Swiss mice, observed for a week
Procedure: The acute toxicity was determined on groups of Swiss mice weighing 18 to 22 g and the test products were administered intraperitoneally in increasing doses and the animals were kept under observation for a week.

[5] = system: amytal sleeping time; test: Potentialization of sleeping time (amytal); type: in vivo, mice (female); details: 1 h before 80 mg/kg amytal i.v.
Procedure: The potentialization of sleeping time was determined with a test using amytal [5-ethyl-5-isoamyl-barbituric acid] in which groups of female mice weighing between 18 and 22 g were kept at 25° C for the duration of the test. The test products were administered intraperitoneally at different doses one hour before intraveinous injection of 80 mg/kg of amytal and the sleeping time was noted which is the time while the reflux of straightening in the mice was negative.

[6] = 5 mg/Kg i.p., 1 h before 15 mg/kg amphetamine
[7] = 10 mg/Kg i.p., 1 h before 15 mg/kg amphetamine
[8] = 20 mg/Kg i.p., 1 h before 15 mg/kg amphetamine

SMILES | total symptom score as percent of the total of control animals ([1]; 1 mg/Kg i.p.) | total symptom score as percent of the total of control animals ([1]; 2 mg/Kg i.p.) | total symptom score as percent of the total of control animals ([1]; 10 mg/Kg i.p.) | Dose of pentamethylenetetrazol, Clonic Crisis ([2]; 1 mg/Kg i.p.) | Dose of pentamethylenetetrazol, Myoclonia ([2]; 1 mg/Kg i.p.) | Dose of pentamethylenetetrazol, Tonic Crisis ([2]; 1 mg/Kg i.p.) | Dose of pentamethylenetetrazol, Clonic Crisis ([2]; 2 mg/Kg i.p.) | Dose of pentamethylenetetrazol, Myoclonia ([2]; 2 mg/Kg i.p.) | Dose of pentamethylenetetrazol, Tonic Crisis ([2]; 2 mg/Kg i.p.) | Dose of pentamethylenetetrazol, Clonic Crisis ([2]; 5 mg/Kg i.p.) | Dose of pentamethylenetetrazol, Myoclonia ([2]; 5 mg/Kg i.p.) | Dose of pentamethylenetetrazol, Tonic Crisis ([2]; 5 mg/Kg i.p.) | ratio of number of dead animals to number of starting animals [3, 6] | ratio of number of dead animals to number of starting animals [3, 7] | ratio of number of dead animals to number of starting animals [3, 8] | LD50 at 168 h [4] | average sleeping time ([5]; 2 mg/Kg i.p.) | average sleeping time ([5]; 5 mg/Kg i.p.) | average sleeping time ([5]; 10 mg/Kg i.p.) | average sleeping time ([5]; 1 mg/Kg i.p.) | further results
OCCN1C2Cc3ccccc3C1c1ccccc12 (stereo not drawn) [Example 6, 12-(2'-hydroxyethyl)-10,11-dihydro-5,10-imino-[5H]-dibenzo (a,d) cycloheptene dl] | 138% | 155% | 140% | 45.7 mg/kg | 40.6 mg/kg | 144.2 mg/kg | 43.5 mg/kg | 38.6 mg/kg | 104.3 mg/kg | 45.5 mg/kg | 49.3 mg/kg | 204.6 mg/kg | 3/10 | 9/10 and 3/10 | 0/10 | 350 mg/kg | – | – | – | – | Dose of pentamethylenetetrazol, Clonic Crisis ([2]; 0.5 mg/Kg i.p.): 42.9 mg/kg; Dose of pentamethylenetetrazol, Myoclonia ([2]; 0.5 mg/Kg i.p.): 38.2 mg/kg; Dose of pentamethylenetetrazol, Tonic Crisis ([2]; 0.5 mg/Kg i.p.): 129.0 mg/kg
CCCN1C2Cc3ccccc3C1c1ccccc12 (stereo not drawn) [Example 24, 12-n-propyl-10,11-dihydro-5,10-imino[5H]-dibenzo (a,d) cycloheptene dl] | – | – | – | 61.8 mg/kg | 54.2 mg/kg | 170.3 mg/kg | 57.3 mg/kg | 50.4 mg/kg | 225.8 mg/kg | 60.0 mg/kg | 51.4 mg/kg | 265.2 mg/kg | 10/10 | 9/10 | 3/10 | ~250 mg/kg | 38.6 min | 42.2 min | 65.1 min | – | Dose of pentamethylenetetrazol, Clonic Crisis ([2]; 10 mg/Kg i.p.): 78.4 mg/kg; Dose of pentamethylenetetrazol, Myoclonia ([2]; 10 mg/Kg i.p.): 57.7 mg/kg; Dose of pentamethylenetetrazol, Tonic Crisis ([2]; 10 mg/Kg i.p.): 275.9 mg/kg; average sleeping time ([5]; 20 mg/Kg i.p.): 103.7 min
CCN1C2Cc3ccccc3C1c1ccccc12 (stereo not drawn) [Example 21, 12-ethyl-10,11-dihydro-5,10-imino-[5H]-dibenzo (a,d) cycloheptene dl] | 187% | 175% | – | 48.3 mg/kg | 42.9 mg/kg | 168.2 mg/kg | 47.7 mg/kg | 42.3 mg/kg | 206.2 mg/kg | 57.0 mg/kg | 49.6 mg/kg | 238.1 mg/kg | 10/10 | 6/10 | 0/10 | – | 39.6 min | 58.1 min | 71.5 min | 32.1 min | total symptom score as percent of the total of control animals ([1]; 5 mg/Kg i.p.): 181%; ratio of number of dead animals to number of starting animals ([3]; head prints only "mg/Kg" (dose figure missing), i.p.): 0/10
CN(C)CC(=O)N1C2Cc3ccccc3C1c1ccccc12 (stereo not drawn) [Example 14, 12-dimethylaminoacetyl-10,11-dihydro-5,10-imino-[5H]-dibenzo (a,d) cycloheptene dl] | – | – | 117% | – | – | – | – | – | – | – | – | – | – | – | – | 150 mg/kg | – | – | – | – | total symptom score as percent of the total of control animals ([1]; 20 mg/Kg i.p.): 160%; total symptom score as percent of the total of control animals ([1]; 50 mg/Kg i.p.): 196%
CN1C2Cc3ccccc3C1c1ccccc12 (stereo not drawn) [Example 15, 12-methyl-10,11-dihydro-5,10-imino-[5H]-dibenzo (a,d) cycloheptene dl] | – | – | – | 44.0 mg/kg | 38.1 mg/kg | 182.7 mg/kg | 52.9 mg/kg | 46.7 mg/kg | 231.8 mg/kg | – | – | – | 0/10 | 0/10 | – | 175 mg/kg | 30.6 min | 42.9 min | 78.6 min | 32.9 min | Dose of pentamethylenetetrazol, Clonic Crisis ([2]; 200γ/Kg i.p.): 43.0 mg/kg; Dose of pentamethylenetetrazol, Myoclonia ([2]; 200γ/Kg i.p.): 38.1 mg/kg; Dose of pentamethylenetetrazol, Tonic Crisis ([2]; 200γ/Kg i.p.): 122.7 mg/kg; Dose of pentamethylenetetrazol, Clonic Crisis ([2]; 500γ/Kg i.p.): 45.9 mg/kg; Dose of pentamethylenetetrazol, Myoclonia ([2]; 500γ/Kg i.p.): 41.1 mg/kg; Dose of pentamethylenetetrazol, Tonic Crisis ([2]; 500γ/Kg i.p.): 134.9 mg/kg; ratio of number of dead animals to number of starting animals ([3]; 1 mg/Kg i.p., 1 h before 15 mg/kg amphetamine): 6/10; ratio of number of dead animals to number of starting animals ([3]; 2 mg/Kg i.p., 1 h before 15 mg/kg amphetamine): 1/10; ratio of number of dead animals to number of starting animals ([3]; 200γ/Kg i.p., 1 h before 15 mg/kg amphetamine): 10/10; ratio of number of dead animals to number of starting animals ([3]; 500γ/Kg i.p., 1 h before 15 mg/kg amphetamine): 8/10; ED50 ([3]; Mus musculus, ip, 4 h, i.p., mice, read-out: DA50 (dose which reduced by half the amphetamine deaths)): 1 mg/kg; average sleeping time ([5]; 0.5 mg/Kg i.p.): 33.9 min
